# Assay results as given in US9066887B2, “Transdermal therapeutic system having urea components” (LTS LOHMANN THERAPIE-SYSTEME AG, priority 2008, dated 2015).
# Assay: In vitro permeation from TTS in Franz diffusion cell
# Conditions: TTS with 10% (m/m) active ingredient and 20% (m/m) solid urea of particle size >100 μm (B) versus TTS containing no urea (A); acrylate adhesive matrix; cow udder, 32° C., 72 h
# Experimental: A commercial acrylate adhesive was dissolved in a solvent. […] This acrylate adhesive composition was cast to form a reservoir layer 500 μm in thickness, and the solvent was evaporated, producing a matrix basis weight of 100 g/m^2. A number of experimental TTS were punched from this active ingredient laminate, and were then used for experiments in vitro.
# The Franz diffusion cell is composed of a donor compartment and an acceptor compartment, separated by a membrane (cow udder). The donor compartment contains the TTS, while, for the acceptor compartment, a physiological buffer was used, conditioned to a temperature of 32° C. Samples were taken from the acceptor compartment over a period of 72 h, and were analyzed by HPLC for the permeated amount of active ingredient.
row,SMILES,"increase in active ingredient permeation through the skin (cumulative permeated amount), factor"
1,Cn1c(=O)c2c(ncn2C)n(C)c1=O [caffeine],8
2,c1ccc(Cn2c(N3CCNCC3)nc3ccccc32)cc1 [lerisetron],9
3,Clc1ccc2nsnc2c1NC1=NCCN1 [tizanidine],4
